Laboratory results as given in paper PMC4579270, “Identification and Characterization of an Irreversible Inhibitor of CDK2” (Chemistry & Biology, 2015).

Assays:
Test in all cases: Dundee protein kinase screen
Format in all cases: biochemical
CDK9-Cyclin T1 = CDK9-Cyclin T1 (Homo sapiens, UniProt P50750); details: CDK9-Cyclin T1, 1µM; read-out: %Remaining activity at 1µM NU6300
Experimental: (§1) Prior to determining its cellular activity, we carried out a screen to assess its selectivity against a panel of 131 protein kinases under conditions that would not distinguish between a reversible or irreversible mode of action. […] These 13 kinases and 29 additional kinases, selected for their known sensitivity to other inhibitors within the purine series, were then tested in a modified screening format in which the assay was repeated following a 4-hr pre-incubation (Table S3B). […] However, conformational flexibility around the active site may promote such an interaction with a residue from another part of the structure ([Martin et al., 2012]).
(§2) Table S3, Related to Figure 4. NCL-0006300 protein kinase selectivity. (A) NU6300 was tested at a single concentration of 1µM against 131 protein kinases present in a Dundee protein kinase screen (Bain et al., 2007). Values given are % activity remaining and are the average of duplicate measurements: 0-25% (red), 26-50% (yellow), 51-80% (black) and above 81% (green). The kinase domain sequences (as defined by UniProt) of […]
(§3) have a lysine residue at a position close to CDK2 Lys88 or Lys89. However, in the structure of tyrosine-protein kinase BTK (PDB ID: 3GEN) the residue equivalent to CDK2 Asp86 is Cys481 and therefore there is the potential for a covalent adduct to be formed through this side chain. Ephrin type-B receptor 3 (UniProt entry P54753) also encodes a cysteine residue (Cys717) that by sequence alignment would be predicted to be close to the CDK2 lysine pair. (B) Selected kinases were re-tested in the Dundee kinase screen against NU6300 at a single concentration of 0.5 µM both in the standard assay format and following a 4 hour pre-incubation in the presence of NU6300. Kinases which have very low activity after the 4 hour incubation so that results might not be wholly reliable are boxed in salmon. Kinases where the activity after a 4 hour pre-incubation is < 50% that in the standard assay format are highlighted in red.

EPH-B2 = EPH-B2 (Homo sapiens, UniProt P29323); details: EPH-B2, 1µM; read-out: %Remaining activity at 1µM NU6300
Experimental: as §1, §2, §3

ERK1 = ERK1 (Homo sapiens, UniProt P27361); details: ERK1, 1µM; read-out: %Remaining activity at 1µM NU6300
Experimental: as §1, §2, §3

ERK8 = target: T1, ERK8 (Homo sapiens, UniProt Q8TD08); details: ERK8, 1µM; read-out: %Remaining activity at 1µM NU6300
T1 sequence (Q8TD08 1-544): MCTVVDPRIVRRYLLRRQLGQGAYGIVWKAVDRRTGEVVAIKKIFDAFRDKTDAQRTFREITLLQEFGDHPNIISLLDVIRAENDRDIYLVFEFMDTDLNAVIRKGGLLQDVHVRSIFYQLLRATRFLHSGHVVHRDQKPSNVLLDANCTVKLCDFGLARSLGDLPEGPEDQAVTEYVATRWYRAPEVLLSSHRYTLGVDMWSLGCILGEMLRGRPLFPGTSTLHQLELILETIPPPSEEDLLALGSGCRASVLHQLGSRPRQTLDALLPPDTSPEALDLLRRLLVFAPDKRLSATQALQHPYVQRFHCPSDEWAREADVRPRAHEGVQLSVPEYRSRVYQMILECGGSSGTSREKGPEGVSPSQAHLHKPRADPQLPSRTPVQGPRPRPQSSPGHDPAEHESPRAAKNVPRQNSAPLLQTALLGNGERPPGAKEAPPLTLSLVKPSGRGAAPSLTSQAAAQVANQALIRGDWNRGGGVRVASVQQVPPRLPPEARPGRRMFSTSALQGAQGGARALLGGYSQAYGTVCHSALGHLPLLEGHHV
Experimental: as §1, §2, §3

GSK3β = GSK3β (Homo sapiens, UniProt P49841); details: read-out: %Remaining activity at 1µM NU6300
Experimental: as §1, §2, §3

MINK1 = MINK1 (Homo sapiens, UniProt Q8N4C8); details: MINK1, 1µM; read-out: %Remaining activity at 1µM NU6300
Experimental: as §1, §2, §3

RIPK2 = RIPK2 (Homo sapiens, UniProt O43353); details: RIPK2, 1µM; read-out: %Remaining activity at 1µM NU6300
Experimental: as §1, §2, §3

SmMLCK = SmMLCK (Homo sapiens, UniProt Q15746); details: read-out: %Remaining activity at 1µM NU6300
Experimental: as §1, §2, §3

TSSK1 = target: T2, TSSK1 (Homo sapiens, UniProt Q9BXA7); details: TSSK1, 1µM; read-out: %Remaining activity at 1µM NU6300
T2 sequence (Q9BXA7 1-367): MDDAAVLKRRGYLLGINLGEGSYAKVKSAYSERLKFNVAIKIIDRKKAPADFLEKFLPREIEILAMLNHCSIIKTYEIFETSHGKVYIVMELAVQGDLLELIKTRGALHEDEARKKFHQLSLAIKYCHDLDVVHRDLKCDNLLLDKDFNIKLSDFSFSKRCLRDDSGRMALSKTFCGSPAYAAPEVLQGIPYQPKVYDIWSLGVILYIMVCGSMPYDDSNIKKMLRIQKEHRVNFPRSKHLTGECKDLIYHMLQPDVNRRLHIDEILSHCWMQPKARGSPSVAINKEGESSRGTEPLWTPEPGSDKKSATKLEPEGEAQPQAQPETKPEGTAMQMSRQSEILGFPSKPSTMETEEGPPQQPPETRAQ
Experimental: as §1, §2, §3

TTBK1 = TTBK1 (Homo sapiens, UniProt Q5TCY1); details: TTBK1, 1µM; read-out: %Remaining activity at 1µM NU6300
Experimental: as §1, §2, §3

VEG-FR1 = VEG-FR1 (Homo sapiens, UniProt P17948); details: VEG-FR1, 1µM; read-out: %Remaining activity at 1µM NU6300
Experimental: as §1, §2, §3

STK33 = STK33 (Homo sapiens, UniProt Q9BYT3); details: STK33, 1µM; read-out: %Remaining activity at 1µM NU6300
Outline: (§4)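 Selectivity panel of 131 protein kinases, inhibitor tested at a single concentration of 1 µM; values are % kinase activity remaining, mean of duplicates. Re-test of selected kinases used 0.5 µM in the standard format and again after a 4 hour pre-incubation with the inhibitor.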

SYK = SYK (Homo sapiens, UniProt P43405); details: read-out: %Remaining activity at 1µM NU6300
Outline: as §4

Sequence of GSK3β (P49841 whole entry): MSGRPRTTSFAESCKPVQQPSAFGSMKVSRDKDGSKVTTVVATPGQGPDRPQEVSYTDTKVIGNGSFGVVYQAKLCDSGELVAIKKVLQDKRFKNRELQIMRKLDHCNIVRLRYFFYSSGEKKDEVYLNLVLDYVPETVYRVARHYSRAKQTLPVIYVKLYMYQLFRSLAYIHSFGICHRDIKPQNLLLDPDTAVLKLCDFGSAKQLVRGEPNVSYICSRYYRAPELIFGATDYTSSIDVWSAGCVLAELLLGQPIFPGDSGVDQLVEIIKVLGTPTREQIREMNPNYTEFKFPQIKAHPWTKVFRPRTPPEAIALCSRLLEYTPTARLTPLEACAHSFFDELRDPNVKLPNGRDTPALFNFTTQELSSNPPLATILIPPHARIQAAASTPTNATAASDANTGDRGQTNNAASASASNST
Sequence of CDK9-Cyclin T1 (P50750 whole entry): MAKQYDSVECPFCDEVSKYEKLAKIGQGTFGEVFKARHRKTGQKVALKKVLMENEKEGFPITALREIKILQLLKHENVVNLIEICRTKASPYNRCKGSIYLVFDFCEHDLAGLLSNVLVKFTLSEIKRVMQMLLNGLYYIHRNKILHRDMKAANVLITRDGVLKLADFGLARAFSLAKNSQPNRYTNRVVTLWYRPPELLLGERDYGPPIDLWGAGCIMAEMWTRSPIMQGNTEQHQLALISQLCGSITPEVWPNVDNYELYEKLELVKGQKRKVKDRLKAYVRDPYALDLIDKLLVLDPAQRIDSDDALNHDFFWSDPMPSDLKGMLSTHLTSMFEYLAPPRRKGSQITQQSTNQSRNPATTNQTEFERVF
Sequence of CDK9-Cyclin T1 (O60563 whole entry partner): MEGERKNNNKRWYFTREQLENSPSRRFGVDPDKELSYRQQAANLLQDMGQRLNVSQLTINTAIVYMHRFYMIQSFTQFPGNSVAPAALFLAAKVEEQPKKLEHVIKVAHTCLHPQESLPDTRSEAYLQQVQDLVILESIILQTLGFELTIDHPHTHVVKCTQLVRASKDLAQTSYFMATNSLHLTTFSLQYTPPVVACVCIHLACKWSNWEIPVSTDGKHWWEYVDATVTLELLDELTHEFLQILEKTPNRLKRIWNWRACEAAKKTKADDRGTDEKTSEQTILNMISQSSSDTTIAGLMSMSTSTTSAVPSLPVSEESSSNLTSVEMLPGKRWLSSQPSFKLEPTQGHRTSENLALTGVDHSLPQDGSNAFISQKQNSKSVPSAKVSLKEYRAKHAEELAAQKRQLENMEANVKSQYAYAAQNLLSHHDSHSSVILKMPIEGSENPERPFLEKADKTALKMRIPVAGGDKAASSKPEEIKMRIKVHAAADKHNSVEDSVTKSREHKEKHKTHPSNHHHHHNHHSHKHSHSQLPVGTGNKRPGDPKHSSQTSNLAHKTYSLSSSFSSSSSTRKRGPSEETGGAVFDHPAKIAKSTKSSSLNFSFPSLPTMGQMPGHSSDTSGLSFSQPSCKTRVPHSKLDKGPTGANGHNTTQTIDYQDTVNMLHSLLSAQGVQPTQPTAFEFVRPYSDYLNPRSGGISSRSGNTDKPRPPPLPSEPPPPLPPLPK
Sequence of EPH-B2 (P29323 19-1055): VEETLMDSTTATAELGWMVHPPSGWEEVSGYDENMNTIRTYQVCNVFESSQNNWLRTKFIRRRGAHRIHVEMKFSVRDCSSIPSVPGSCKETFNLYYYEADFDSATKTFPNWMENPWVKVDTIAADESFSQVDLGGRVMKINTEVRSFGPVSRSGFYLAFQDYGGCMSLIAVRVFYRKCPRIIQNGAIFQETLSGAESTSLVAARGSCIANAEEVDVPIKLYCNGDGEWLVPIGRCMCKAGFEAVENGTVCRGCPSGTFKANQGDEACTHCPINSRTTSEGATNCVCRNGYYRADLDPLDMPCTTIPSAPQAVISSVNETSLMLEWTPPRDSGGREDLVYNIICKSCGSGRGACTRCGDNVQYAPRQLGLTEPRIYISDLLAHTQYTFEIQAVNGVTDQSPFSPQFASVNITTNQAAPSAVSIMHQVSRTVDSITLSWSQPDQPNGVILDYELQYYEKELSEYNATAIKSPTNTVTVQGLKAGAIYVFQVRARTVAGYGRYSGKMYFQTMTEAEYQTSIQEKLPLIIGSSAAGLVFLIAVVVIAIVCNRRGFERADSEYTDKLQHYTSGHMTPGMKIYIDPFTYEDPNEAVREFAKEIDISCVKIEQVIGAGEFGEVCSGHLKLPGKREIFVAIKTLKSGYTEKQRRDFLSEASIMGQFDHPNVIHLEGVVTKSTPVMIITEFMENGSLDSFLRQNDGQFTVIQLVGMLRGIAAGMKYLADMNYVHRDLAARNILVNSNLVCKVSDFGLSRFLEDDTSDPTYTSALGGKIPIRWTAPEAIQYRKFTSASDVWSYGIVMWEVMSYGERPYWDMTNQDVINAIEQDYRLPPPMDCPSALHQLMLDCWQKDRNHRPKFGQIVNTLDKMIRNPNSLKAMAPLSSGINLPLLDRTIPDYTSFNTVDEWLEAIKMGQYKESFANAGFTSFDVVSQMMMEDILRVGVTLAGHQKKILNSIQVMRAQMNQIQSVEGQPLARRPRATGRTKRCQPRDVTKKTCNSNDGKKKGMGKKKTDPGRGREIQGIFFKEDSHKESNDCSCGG
Sequence of STK33 (Q9BYT3 whole entry): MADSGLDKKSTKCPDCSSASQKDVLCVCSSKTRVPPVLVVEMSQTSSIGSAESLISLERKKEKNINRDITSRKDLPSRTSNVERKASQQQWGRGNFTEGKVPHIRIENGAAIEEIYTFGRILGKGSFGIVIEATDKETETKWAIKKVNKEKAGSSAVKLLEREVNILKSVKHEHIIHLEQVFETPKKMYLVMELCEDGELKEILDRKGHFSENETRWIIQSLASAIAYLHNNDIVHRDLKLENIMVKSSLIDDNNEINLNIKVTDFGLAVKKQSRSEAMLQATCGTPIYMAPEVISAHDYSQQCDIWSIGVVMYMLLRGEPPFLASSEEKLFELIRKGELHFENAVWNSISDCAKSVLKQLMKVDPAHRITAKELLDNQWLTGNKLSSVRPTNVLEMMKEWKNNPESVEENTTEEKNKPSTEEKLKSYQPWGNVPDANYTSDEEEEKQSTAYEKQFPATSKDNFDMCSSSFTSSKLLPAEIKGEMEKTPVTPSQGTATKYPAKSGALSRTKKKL
Sequence of SmMLCK (Q15746 923-1914): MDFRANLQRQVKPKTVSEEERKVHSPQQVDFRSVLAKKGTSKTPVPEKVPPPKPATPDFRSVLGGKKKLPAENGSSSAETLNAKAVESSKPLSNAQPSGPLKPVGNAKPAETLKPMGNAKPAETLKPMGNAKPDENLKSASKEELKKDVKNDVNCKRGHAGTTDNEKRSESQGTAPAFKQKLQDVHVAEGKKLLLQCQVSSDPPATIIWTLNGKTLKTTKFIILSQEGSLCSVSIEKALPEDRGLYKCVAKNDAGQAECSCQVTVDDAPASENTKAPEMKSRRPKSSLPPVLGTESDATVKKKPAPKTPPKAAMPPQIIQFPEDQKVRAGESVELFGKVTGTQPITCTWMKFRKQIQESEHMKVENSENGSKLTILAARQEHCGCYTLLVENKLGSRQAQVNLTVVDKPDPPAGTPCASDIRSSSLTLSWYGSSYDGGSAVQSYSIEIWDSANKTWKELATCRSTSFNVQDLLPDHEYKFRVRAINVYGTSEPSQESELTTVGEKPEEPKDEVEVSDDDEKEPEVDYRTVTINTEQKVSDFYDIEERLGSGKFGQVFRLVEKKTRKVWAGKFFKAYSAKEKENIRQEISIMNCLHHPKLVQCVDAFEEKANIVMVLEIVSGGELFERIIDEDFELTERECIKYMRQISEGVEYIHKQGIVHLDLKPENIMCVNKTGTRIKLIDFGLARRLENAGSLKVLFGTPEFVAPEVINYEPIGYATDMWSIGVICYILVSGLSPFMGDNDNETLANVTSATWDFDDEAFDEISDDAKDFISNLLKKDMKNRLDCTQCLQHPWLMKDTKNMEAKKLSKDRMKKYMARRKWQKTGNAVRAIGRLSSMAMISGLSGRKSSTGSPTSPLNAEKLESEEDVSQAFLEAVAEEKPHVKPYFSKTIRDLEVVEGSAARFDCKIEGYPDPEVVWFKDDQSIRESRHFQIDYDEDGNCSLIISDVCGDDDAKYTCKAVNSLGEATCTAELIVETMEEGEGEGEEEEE
Sequence of ERK1 (P27361 whole entry): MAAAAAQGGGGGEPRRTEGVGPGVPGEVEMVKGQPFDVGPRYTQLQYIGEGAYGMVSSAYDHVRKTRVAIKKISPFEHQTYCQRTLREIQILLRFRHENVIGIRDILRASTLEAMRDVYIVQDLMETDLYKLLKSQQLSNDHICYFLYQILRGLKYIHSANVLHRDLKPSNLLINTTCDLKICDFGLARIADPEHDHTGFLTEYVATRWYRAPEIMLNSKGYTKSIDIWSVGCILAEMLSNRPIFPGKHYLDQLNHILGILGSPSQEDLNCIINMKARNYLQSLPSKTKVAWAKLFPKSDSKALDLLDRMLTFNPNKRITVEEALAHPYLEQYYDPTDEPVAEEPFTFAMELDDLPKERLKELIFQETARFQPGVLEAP
Sequence of RIPK2 (O43353 whole entry): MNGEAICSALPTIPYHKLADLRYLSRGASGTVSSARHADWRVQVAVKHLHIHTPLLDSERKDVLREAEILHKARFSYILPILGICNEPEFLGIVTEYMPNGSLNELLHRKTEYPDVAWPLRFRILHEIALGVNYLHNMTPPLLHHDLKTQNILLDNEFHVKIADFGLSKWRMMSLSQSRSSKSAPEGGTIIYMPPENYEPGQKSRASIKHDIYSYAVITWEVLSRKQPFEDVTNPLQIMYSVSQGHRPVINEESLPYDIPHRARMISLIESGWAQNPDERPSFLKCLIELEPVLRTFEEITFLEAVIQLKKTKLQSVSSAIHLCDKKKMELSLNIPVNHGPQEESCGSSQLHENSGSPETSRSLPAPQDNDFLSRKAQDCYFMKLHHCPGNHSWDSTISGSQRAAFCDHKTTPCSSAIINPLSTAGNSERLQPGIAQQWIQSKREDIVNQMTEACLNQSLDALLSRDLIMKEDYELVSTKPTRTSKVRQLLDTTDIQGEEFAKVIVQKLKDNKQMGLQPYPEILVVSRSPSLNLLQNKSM

## C=CS(=O)(=O)c1ccc(Nc2nc(OCC3CCCCC3)c3nc[nH]c3n2)cc1 [NU6300, 6-(cyclohexylmethoxy)-N-(4-(vinylsulfonyl)phenyl)-9H-purin-2-amine]
CDK9-Cyclin T1
  remaining activity at 1 µM: 87%
EPH-B2
  remaining activity at 1 µM: 96%
ERK1
  remaining activity at 1 µM: 70%
ERK8
  remaining activity at 1 µM: 24%
GSK3β
  remaining activity at 1 µM: 42%
MINK1
  remaining activity at 1 µM: 69%
RIPK2
  remaining activity at 1 µM: 86%
SmMLCK
  remaining activity at 1 µM: 85%
TSSK1
  remaining activity at 1 µM: 26%
TTBK1
  remaining activity at 1 µM: 83%
VEG-FR1
  remaining activity at 1 µM: 14%
STK33
  remaining activity at 1 µM: 59%
SYK
  remaining activity at 1 µM: 58%
